Laboratory results reported in patent US6544976B1, “Neurotrophic 2-azetidinecarboxylic acid derivatives, and related compositions and methods” (Ortho-McNeil Pharmaceutical, Inc., priority 1999, dated 2003).

What was measured:
[1] = tested on: facial nerve; assay: Rat facial nerve compression model; assay type: in vivo, Long-Evans rats; conditions: p.o. about 20 mg/kg twice a day for 15 days after surgery; compared to vehicle and internal control; FIG. 1
Experimental: In this model, compressing the facial nerve causes paralysis of the whisker muscle on that side of the face. The untreated facial nerve on the other side functions as an internal control. […] The whisker movement recovery rate on the paralyzed side compared to the vehicle and internal control is shown in this FIGURE.
Long-Evans rats are anesthetized under ketamine (60 mg/kg)/xylazine (6 mg/kg). The facial nerve is exposed and mechanically compressed with forceps near the stylomastoid foramen unilaterally with the opposite, non-lesioned side serving as an internal control. […] Rats received test compound p.o. at about 20 mg/kg twice a day for 15 days after the surgery. Control rats received vehicle only. Three to eight rats are tested in each group. Restoration of whisker movement after the treatment with compounds of the present invention is recorded at different post-operative time points daily, up to two weeks, and is shown in FIG. 1.

[2] = tested on: DRG; assay: Dorsal root ganglion (DRG) culture, neurite outgrowth; assay type: cell-based, CD rats; design: key: + = Positive results for each experiment; − = Negative results for each experiment; NA = Not active; conditions: test compound 50-250 nM; neurite outgrowth examined on days 1-5; positive (+) if compound induced neurites of ≧1 diameter of the DRG
Experimental: DRG are dissected from newborn or 1-day-old CD rats and placed into PBS on ice. After rinsing twice with sterile plating medium, DRG are transferred to empty wells of a 6-well plate coated with polyomithine/laminin (Becton Dickinson Labware) using #7 curved forceps. Three ml/well of plating medium are then added very gently, so as not to disturb the DRG. Plating medium is Leibovitz's L-15 medium (Gibco), plus 0.6% glucose, 33 mM KCl, 10% FCS, 10 mM Hepes and penicillin/streptomycin/glutamine. After overnight incubation at about 37° C. in 5% CO2, this medium is replaced with 3 mL/well of assay medium [Leibovitz's L-15 medium plus 0.6% glucose, 1% FCS, 1% N-2 supplement (Gibco), […], 10 mM Hepes, and penicillin/streptomycin/glutamine] containing either vehicle (DMSO, 1/200,000), positive control (2-4 ng/mL NGF) or test compound (50-250 nM). All media are prepared fresh daily. DRG are microscopically examined for neurite outgrowth on days 1-5.

[3] = tested on: Human M17 Neuroblastoma Cells; assay: Neurite outgrowth assay (MAP-2 immunofluorescence) in M17 neuroblastoma cells; assay type: cell-based; conditions: MAP-2 fluorescence, active if greater than mean DMSO-treated control on same plate, NA = Not active
Experimental: M17 human neuroblastoma cells are cultured in 1:1 ratio of EMEM and Ham's F12 with 1×NEAA and 10% FBS. The culture media contains 1×PSN antibiotic and is exchanged every other day, and the cells are passed in log phase near confluence.
(§1) Cultures are incubated with normal horse serum (1:50; Vector Labs) for about 20 min, rinsed and then incubated with primary antibody, microtubule associated-protein 2 (anti-mouse MAP-2; 1:1000; Chemicon) for about 2 h at about RT. Following primary antibody, cultures are rinsed and incubated with fluorescein anti-mouse IgG (rat absorbed; 1:50; Vector Labs) for about 1 h. After fluorescein incubation, the cultures are rinsed and read in PBS on a fluorescent plate reader (excitation: 485 nm; emission: 530 nm). A compound is regarded as active if the neurite outgrowth response is greater than the mean DMSO-treated control response on the same plate. The response to test compound is reported as percent of DMSO-treated control (absent the percentage sign). The signal-to-noise separation is consistent: the fluorescence from DMSO control wells is at least two-fold greater than blank wells.

[4] = tested on: Primary Rat Hippocampal Cells; assay: Neurite outgrowth assay (MAP-2 immunofluorescence) in primary rat hippocampal cells; assay type: cell-based; conditions: MAP-2 fluorescence, active if greater than mean DMSO-treated control on same plate, NA = Not active
Experimental: Hippocampal cells are dissected from the brains of embryonic day 18 rat pups and dissociated with trypsin (1 mg/mL) and trituration. Cells are seeded at 30,000 cells/well in 96-well plates filled with 100 μL MEM and 10%FBS. At 7 days in culture, cells are fixed with 4% paraformaldehyde and immunofluorescence is performed.
as §1

[5] = tested on: PC12 cells; conditions: cultures of PC12 cells; cited from earlier work
[6] = tested on: sensory ganglia; conditions: cultures of sensory ganglia; cited from earlier work

| Structure (SMILES) | M17 Cell Response [3] | Rat Hippocampal Cell Response [4] | further results |
| --- | --- | --- | --- |
| CCC(C)(C)C(=O)C(=O)N1CC[C@H]1C(=O)OCCCc1cccnc1 [Compound 1, (2S)-[3-(3-Pyridyl)1-propyl]-1-(1,2-dioxo-3,3-dimethylpentyl)azetidine-2-carboxylate] | 140% of DMSO-treated control | – | Restoration of whisker movement on the paralyzed side [1]: restored more rapidly; DRG [2]: + |
| CCC(C)(C)C(=O)C(=O)N1CC[C@H]1C(=O)OC(C)(C)CCc1cccnc1 [Compound 2, (2S)-[3-(3-Pyridyl)-1,1-dimethyl-1-propyl]-1-(1,2-dioxo-3,3-dimethylpentyl)azetidine-2-dicarboxylate] | 134% of DMSO-treated control | – | DRG [2]: + |
| CCC(C)(C)C(=O)C(=O)N1CC[C@H]1C(=O)OCCC(c1ccccc1)c1ccccc1 [Compound 3, (2S)-(3,3-Diphenyl-1-propyl)1-(1,2-dioxo-3,3-dimethylpentyl) azetidine-2-carboxylate] | 110% of DMSO-treated control | 119% of DMSO-treated control | – |
| CCC(C)(C)C(=O)C(=O)N1CC[C@H]1C(=O)OCCCCc1ccc(OC)cc1 [Compound 4, (2S)-[4-(4-Methoxyphenyl)-1-butyl]-1-(1,2-dioxo-3,3-dimethylpentyl)azetidine-2-carboxylate] | 107% of DMSO-treated control | – | – |
| CC(C)(C)NC(=O)N1CC[C@H]1C(=O)OCCCc1cccnc1 [Compound 7] | – | 123% of DMSO-treated control | – |
| O=C(C(=O)N1CC[C@H]1C(=O)OCCCc1cccnc1)c1ccccc1 [Compound 9] | – | 112% of DMSO-treated control | – |
| CC(C)(C)C(=O)C(=O)N1CC[C@H]1C(=O)OCCCc1cccnc1 [Compound 10, (2S)-[3-(3-Pyridyl)-1-propyl]-1-(1,2-dioxo-3,3-dimethylbutyl)azetidine-2-carboxylate] | – | 123% of DMSO-treated control | – |
| O=C(C(=O)N1CC[C@H]1C(=O)OCCCc1cccnc1)c1cccs1 [Compound 11, (2S)-[3-(3-Pyridyl)-1-propyl]-1-[1,2-dioxo-2-(thien-2-yl)ethyl]azetidine-2-carboxylate] | – | 114% of DMSO-treated control | – |
| Cc1cc(C(=O)N2CC[C@H]2C(=O)OCCCc2cccnc2)nn1C [Compound 13, (2S)-[3-(3-Pyridyl)-1-propyl]-1-[(1,5-dimethylpyrazol-3-yl)carbonyl]azetidine-2-carboxylate] | – | 123% of DMSO-treated control | – |
| CCC(C)(C)C(=O)C(=O)N1CC[C@H]1c1nnnn1CCCc1cccnc1 [Compound 14, (2S)-1-(1,2-Dioxo-3,3-dimethylpentyl)2-(1-[3-(3-pyridyl)-1-propyl]-1H-tetrazol-5-yl)azetidine] | – | 118% of DMSO-treated control | – |
| COc1ccc(CCCCOC(=O)[C@@H]2C[C@@H](C(=O)OCCCCc3ccc(OC)cc3)N2C(=O)C(=O)c2ccccc2)cc1 [Compound 15, (2S,4S)-Bis-[4-(4-methoxyphenyl)-1-butyl)-1-(1,2-dioxo-2-phenylethyl)azetidine-2,4-dicarboxylate] | – | 126% of DMSO-treated control | – |
| CCC(C)(C)C(=O)C(=O)N1[C@@H](C(=O)OCCCCc2ccc(OC)cc2)C[C@H]1C(=O)OCCCCc1ccc(OC)cc1 [Compound 16, (2S,4R)-Bis-[4-(4-methoxyphenyl)-1-butyl]-1-(1,2-dioxo-3,3-dimethylpentyl)azetidine-2,4-dicarboxylate] | 114% of DMSO-treated control | – | – |
| CCC(C)(C)C(=O)C(=O)N1[C@@H](C(=O)OCCC(c2ccccc2)c2ccccc2)C[C@H]1C(=O)OCCC(c1ccccc1)c1ccccc1 [Compound 17, (2S,4R)-Bis-(3,3-diphenyl-1-propyl)-1-(1,2-dioxo-3,3-dimethylpentyl)azetidine-2,4-dicarboxylate] | 106% of DMSO-treated control | – | – |
| CCC(C)(C)C(=O)C(=O)N1C(C(=O)OCCCc2cccnc2)C[C@H]1C(=O)OCCCc1cccnc1 (stereo partly drawn) [Compound 18, (2S,4R)-Bis-[3-(3-pyridyl)-1-propyl]-1-(1,2-dioxo-3,3-dimethylpentyl)azetidine-2,4-dicarboxylate] | 106% of DMSO-treated control | 137% of DMSO-treated control | – |
| CCC(C)(C)C(=O)C(=O)N1[C@@H](C(=O)OCCCCc2ccc(OC)cc2)C[C@@H]1C(=O)OCCCCc1ccc(OC)cc1 [Compound 19, (2R,4R)-Bis-[4-(4-methoxyphenyl)-1-butyl]-1-(1,2-dioxo-3,3-dimethylpentyl)azetidine-2,4-dicarboxylate] | 111% of DMSO-treated control | – | – |
| CCC(C)(C)C(=O)C(=O)N1C(C(=O)OCCCc2cccnc2)C[C@@H]1C(=O)OCCCc1cccnc1 (stereo partly drawn) [Compound 20, (2R,4R)-Bis-[3-(3-pyridyl)-1-propyl]-1-(1,2-dioxo-3,3-dimethylpentyl)azetidine-2,4-dicarboxylate] | 103% of DMSO-treated control | – | – |
| CCC(C)(C)C(=O)C(=O)N1[C@H](C(=O)OCCCCc2ccc(OC)cc2)C[C@H]1C(=O)OCCCCc1ccc(OC)cc1 [Compound 21, (2S,4S)-Bis-[4-(4-methoxyphenyl)-1-butyl]-1-(1,2-dioxo-3,3-dimethylpentyl)azetidine-2,4-dicarboxylate] | 103% of DMSO-treated control | – | – |
| C=CC[C@@H]1/C=C(\C)C[C@H](C)C[C@H](OC)[C@H]2O[C@@](O)(C(=O)C(=O)N3CCCC[C@H]3C(=O)O[C@H](/C(C)=C/[C@@H]3CC[C@@H](O)[C@H](OC)C3)[C@H](C)[C@@H](O)CC1=O)[C@H](C)C[C@@H]2OC [FK506] | – | – | neurotrophic activity [5]: shows neurotrophic activity; neurotrophic activity [6]: shows neurotrophic activity |
